15 molecules from ChEMBL document CHEMBL4152255, “Functionalized spirooxindole-indolizine hybrids: Stereoselective green synthesis and evaluation of anti-inflammatory effect involving TNF-α and nitrite inhibition” (2018) can be followed below.

What all share (type): functional
In assay [1] the test system is Rattus norvegicus. In words: Anti-inflammatory activity against carrageenan-induced paw oedema in Wistar albino rat assessed as hind paw thickness at 50 mg/kg, po pretreated for 1 hr followed by carrageenan challenge measured immediately by caliper method (reference value: 3.58 +/- 0.34 millimeter). A general note: In the carrageenan paw model, swelling and tenderness develop within hours.

In assay [2] the test system is Rattus norvegicus. In words: Anti-inflammatory activity against carrageenan-induced paw oedema in Wistar albino rat assessed as hind paw thickness at 50 mg/kg, po pretreated for 1 hr followed by carrageenan challenge measured after 3 hrs by caliper method (reference value: 8.45 +/- 0.64 millimeter).
Assay [3] relates to Rattus norvegicus. Description: Anti-inflammatory activity against carrageenan-induced paw oedema in Wistar albino rat assessed as hind paw thickness at 50 mg/kg, po pretreated for 1 hr followed by carrageenan challenge measured after 5 hrs by caliper method (reference value: 8.37 +/- 0.64 millimeter).
Assay [4] relates to Rattus norvegicus. In words: Anti-inflammatory activity against carrageenan-induced paw oedema in Wistar albino rat assessed as reduction in hind paw thickness at 50 mg/kg, po pretreated for 1 hr followed by carrageenan challenge measured after 5 hrs by caliper method relative to control. Also noted: scale not given: the % may be the effect or the level left.
Assay [5] relates to Rattus norvegicus. In words: Anti-inflammatory activity against carrageenan-induced paw oedema in Wistar albino rat assessed as reduction in PGE2 level at 50 mg/kg, po pretreated for 1 hr followed by carrageenan challenge by ELISA relative to control. Also noted: scale not given: the % may be the effect or the level left.
The subject of assay [6] is Rattus norvegicus. In words: Anti-inflammatory activity against carrageenan-induced paw oedema in Wistar albino rat assessed as reduction in nitrite level at 50 mg/kg, po pretreated for 1 hr followed by carrageenan challenge by Griess assay relative to control. Also noted: scale not given: the % may be the effect or the level left.
For assay [7], the system named is Rattus norvegicus. Description: Anti-inflammatory activity against carrageenan-induced paw oedema in Wistar albino rat assessed as reduction in TNFalpha level at 50 mg/kg, po pretreated for 1 hr followed by carrageenan challenge by ELISA relative to control. Also noted: scale not given: the % may be the effect or the level left.
The test system of assay [8] is Rattus norvegicus. Description: Anti-inflammatory activity in Wistar albino rat assessed as inhibition of cotton pellet-induced granuloma at 50 mg/kg administered once daily for 7 days measured on day 8 relative to control. Also noted: scale not given: the % may be the effect or the level left.
Assay [9] concerns Rattus norvegicus. In words: Anti-inflammatory activity against carrageenan-induced paw oedema in Wistar albino rat assessed as reduction in hind paw thickness at 50 mg/kg, po pretreated for 1 hr followed by carrageenan challenge measured after 3 hrs by caliper method relative to control. Also noted: scale not given: the % may be the effect or the level left.
Assay [10] has as its system Mus musculus. Description: Antiinflammatory activity in mouse assessed as inhibition of croton oil-induced ear edema at 1 mg/ear administered topically pretreated for 1 hr followed by croton oil addition and measured after 4 hrs relative to control. Also noted: scale not given: the % may be the effect or the level left.
In assay [11] the test system is Rattus norvegicus. Description: Anti-inflammatory activity against carrageenan-induced paw oedema in Wistar albino rat assessed as hind paw thickness at 10 mg/kg, po pretreated for 1 hr followed by carrageenan challenge measured after 3 hrs by caliper method (reference value: 8.45 +/- 0.64 millimeter).
Assay [12] concerns Mus musculus. In words: Antiinflammatory activity in mouse assessed as inhibition of croton oil-induced ear edema at 0.5 mg/ear administered topically pretreated for 1 hr followed by croton oil addition and measured after 4 hrs relative to control. Also noted: scale not given: the % may be the effect or the level left.
The test system of assay [13] is Rattus norvegicus. In words: Anti-inflammatory activity against carrageenan-induced paw oedema in Wistar albino rat assessed as hind paw thickness at 10 mg/kg, po pretreated for 1 hr followed by carrageenan challenge measured immediately by caliper method (reference value: 3.58 +/- 0.34 millimeter).
Assay [14] relates to Rattus norvegicus. Description: Anti-inflammatory activity against carrageenan-induced paw oedema in Wistar albino rat assessed as reduction in TNFalpha level at 10 mg/kg, po pretreated for 1 hr followed by carrageenan challenge by ELISA relative to control. Also noted: scale not given: the % may be the effect or the level left.
Assay [15] deals with Rattus norvegicus. In words: Anti-inflammatory activity in Wistar albino rat assessed as inhibition of cotton pellet-induced granuloma at 10 mg/kg administered once daily for 7 days measured on day 8 relative to control. Also noted: scale not given: the % may be the effect or the level left.
In assay [16] the test system is Rattus norvegicus. Description: Anti-inflammatory activity against carrageenan-induced paw oedema in Wistar albino rat assessed as reduction in PGE2 level at 10 mg/kg, po pretreated for 1 hr followed by carrageenan challenge by ELISA relative to control. Also noted: scale not given: the % may be the effect or the level left.
The subject of assay [17] is Rattus norvegicus. In words: Anti-inflammatory activity against carrageenan-induced paw oedema in Wistar albino rat assessed as hind paw thickness at 10 mg/kg, po pretreated for 1 hr followed by carrageenan challenge measured after 5 hrs by caliper method (reference value: 8.37 +/- 0.64 millimeter).
Assay [18] deals with Rattus norvegicus. Description: Anti-inflammatory activity against carrageenan-induced paw oedema in Wistar albino rat assessed as reduction in nitrite level at 10 mg/kg, po pretreated for 1 hr followed by carrageenan challenge by Griess assay relative to control. Also noted: scale not given: the % may be the effect or the level left.

For `O=C1/C(=C/c2ccc(F)cc2)CNCC12[C@@H](c1ccc(F)cc1)[C@@H]1CCCCN1[C@@]21C(=O)Nc2ccccc21` (some centres undefined), the Activity in the assay on Rattus norvegicus [1] worked out at 3.62 mm; in the assay on Rattus norvegicus [2] it was 7.18 mm; with Rattus norvegicus [3] it was 6.9 mm.

Regarding `O=C1/C(=C/c2ccc(Cl)cc2)CNCC12[C@@H](c1ccc(Cl)cc1)[C@@H]1CCCCN1[C@@]21C(=O)Nc2ccccc21` (some centres undefined), the results for the Activity in the assay with Rattus norvegicus [1], in the assay with Rattus norvegicus [2] and with Rattus norvegicus [3] were 3.62 mm, 8.16 mm and 8 mm, respectively.

Take `Cc1ccc(/C=C2\CNCC3(C2=O)[C@@H](c2ccc(C)cc2)[C@@H]2CCCCN2[C@@]32C(=O)Nc3ccccc32)cc1` (some centres undefined): the Activity in the assay on Rattus norvegicus [4] is listed as 55.3%; in the assay on Rattus norvegicus [5] it was 35.23%; in the assay on Rattus norvegicus [6], 42.99%; in the assay on Rattus norvegicus [1] it was 3.55 mm; in the assay on Rattus norvegicus [2], 3.87 mm; with Rattus norvegicus [7], 36.23%. The Activity is on record as 24.17 - 33.23% in the assay with Rattus norvegicus [8], 54.07% in the assay on Rattus norvegicus [9], 3.74 mm in the assay on Rattus norvegicus [3] and 47.53 - 54.53% in the assay on Mus musculus [10].

Take `O=C1/C(=C/c2ccccc2Br)CNCC12[C@@H](c1ccccc1Br)[C@@H]1CCCCN1[C@@]21C(=O)Nc2ccccc21` (some centres undefined): the results for the Activity with Rattus norvegicus [1], in the assay with Rattus norvegicus [2] and with Rattus norvegicus [3] were 3.54 mm, 7 mm and 6.2 mm, respectively.

In the case of `COc1ccc(/C=C2\CNCC3(C2=O)[C@@H](c2ccc(OC)cc2)[C@@H]2CCCCN2[C@@]32C(=O)Nc3ccccc32)cc1` (some centres undefined), the Activity is given as 55.54% with Rattus norvegicus [4]; 34.1% in the assay with Rattus norvegicus [5]; 41.22% in the assay on Rattus norvegicus [6]; 3.58 mm in the assay on Rattus norvegicus [1]; 3.75 mm in the assay on Rattus norvegicus [2]; 38.52% in the assay on Rattus norvegicus [7]. Besides, the Activity is listed as 32.48 - 37.21% with Rattus norvegicus [8], 55.61% in the assay on Rattus norvegicus [9], 3.72 mm in the assay on Rattus norvegicus [3] and 48.32 - 49.02% with Mus musculus [10].

`O=C1/C(=C/c2ccccc2F)CNCC12[C@@H](c1ccccc1F)[C@@H]1CCCCN1[C@@]21C(=O)Nc2ccccc21` (some centres undefined): the Activity is 3.61 mm in the assay with Rattus norvegicus [1], 6.53 mm in the assay with Rattus norvegicus [2] and 6.13 mm in the assay on Rattus norvegicus [3].

Turning to `Cc1ccccc1/C=C1\CNCC2(C1=O)[C@@H](c1ccccc1C)[C@@H]1CCCCN1[C@@]21C(=O)Nc2ccccc21` (some centres undefined), the figures for the Activity in the assay on Rattus norvegicus [1], in the assay with Rattus norvegicus [2] and in the assay with Rattus norvegicus [3] were 3.63 mm, 7.5 mm and 7.41 mm, respectively.

For `O=C1/C(=C/c2ccccc2Cl)CNCC12[C@@H](c1ccccc1Cl)[C@@H]1CCCCN1[C@@]21C(=O)Nc2ccccc21` (some centres undefined), the Activity in the assay on Rattus norvegicus [1] was 3.59 mm; with Rattus norvegicus [2], 6.54 mm; in the assay on Rattus norvegicus [3] it was 7.18 mm.

`O=C1/C(=C/c2ccc(Cl)cc2Cl)CNCC12[C@@H](c1ccc(Cl)cc1Cl)[C@@H]1CCCCN1[C@@]21C(=O)Nc2ccccc21` (some centres undefined): the Activity was found to be 3.59 mm in the assay on Rattus norvegicus [1], 7.12 mm with Rattus norvegicus [2] and 6.5 mm in the assay on Rattus norvegicus [3].

Consider `COc1cccc(/C=C2\CNCC3(C2=O)[C@@H](c2cccc(OC)c2)[C@@H]2CCCCN2[C@@]32C(=O)Nc3ccccc32)c1` (some centres undefined), for which the Activity worked out at 3.61 mm in the assay with Rattus norvegicus [1], 8.1 mm in the assay with Rattus norvegicus [2] and 7.62 mm in the assay with Rattus norvegicus [3].

On to `COc1ccccc1/C=C1\CNCC2(C1=O)[C@@H](c1ccccc1OC)[C@@H]1CCCCN1[C@@]21C(=O)Nc2ccccc21` (some centres undefined), for which the figures for the Activity in the assay with Rattus norvegicus [1], with Rattus norvegicus [2] and in the assay on Rattus norvegicus [3] were 3.67 mm, 6.31 mm and 7 mm, respectively.

Turning to `O=C1/C(=C/c2ccccc2)CNCC12[C@@H](c1ccccc1)[C@@H]1CCCCN1[C@@]21C(=O)Nc2ccccc21` (some centres undefined), the figures for the Activity in the assay with Rattus norvegicus [1], in the assay with Rattus norvegicus [2] and in the assay with Rattus norvegicus [3] were 3.61 mm, 7.21 mm and 6.98 mm, respectively.

For `O=C1/C(=C/c2ccc(Br)cc2)CNCC12[C@@H](c1ccc(Br)cc1)[C@@H]1CCCCN1[C@@]21C(=O)Nc2ccccc21` (some centres undefined), the values for the Activity in the assay on Rattus norvegicus [1], in the assay with Rattus norvegicus [2] and in the assay with Rattus norvegicus [3] were 3.58 mm, 7.62 mm and 7.7 mm, respectively.

Turning to `Cc1cccc(/C=C2\CNCC3(C2=O)[C@@H](c2cccc(C)c2)[C@@H]2CCCCN2[C@@]32C(=O)Nc3ccccc32)c1` (some centres undefined), the Activity in the assay with Rattus norvegicus [1] is 3.58 mm; with Rattus norvegicus [2], 8.16 mm; with Rattus norvegicus [3] it was 7.82 mm.

With `COc1ccc2c(c1)c(CC(=O)O)c(C)n2C(=O)c1ccc(Cl)cc1` [INDOMETHACIN], the Activity in the assay with Rattus norvegicus [11] stood at 3.86 mm; with Mus musculus [12], 53.56%; in the assay with Rattus norvegicus [13], 3.61 mm; with Rattus norvegicus [14], 37.13%; in the assay on Rattus norvegicus [15] it was 39.7%; in the assay on Rattus norvegicus [16], 33.88%. In addition, the Activity in the assay with Rattus norvegicus [17] came to 3.83 mm; in the assay with Rattus norvegicus [18], 41.64%.
